In paper PMC9250534, “Synthesis and direct assay of large macrocycle diversities by combinatorial late-stage modification at picomole scale” (Nature Communications, 2022):
Numbered stars: 1 amine (or outer) side, 2 acyl side, 3 side chain; on linkers, the order of the positions; unused ones are H or OH. Bridge positions count the residues as written; N and C are the ends. Square brackets hold non-standard residues; d marks the D form. Peptide text beside a SMILES is read from it. * marks the point of attachment. ξ: configuration not given here. Pro(4S-NHCO(5-Cl-2-thienyl)) = O=C(N[C@@H]1CN[C@H](C(=O)O)C1)c1ccc(Cl)s1; ξPro(4-NHCO(5-Cl-2-thienyl)) = O=C(NC1CNC(C(=O)O)C1)c1ccc(Cl)s1; ξPro(4ξ-NHCOC6H4-4-Cl) = O=C(NC1CNC(C(=O)O)C1)c1ccc(Cl)cc1; 2Thenoyl(5-Cl) = O=C(c1ccc(Cl)s1)*; Benzoyl(4-Cl) = O=C(c1ccc(Cl)cc1)*; Cysteamide = C(CS[*:3])N[*:1]; X1 = O=C(/C=C/c1ccccc1)*; Api = NC1(C(=O)O)CCNCC1; Mpa = O=C(O)CCS

Biological target: MDM2 (Homo sapiens, UniProt Q00987)
Test: MDM2 binding screen: displacement of fluorescent p53 peptide probe FP53 (fluorescence polarization)
Conditions: for fraction fluorescent probe displaced, Screen: initial screen; for fraction fluorescent probe displaced, Screen / fraction fluorescent probe displaced, Replicate: crude macrocycle reactions; for fraction fluorescent probe displaced: crude reaction of macrocycle scaffold with Acid 14
In short: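 Macrocycle reaction products at a final 10 µM were tested for displacement of a p53-based fluorescent peptide from human MDM2. Fluorescence anisotropy (ex 485/em 535 nm) was read once per macrocycle at 25 °C.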

MDM2, sequence (Q00987 whole entry): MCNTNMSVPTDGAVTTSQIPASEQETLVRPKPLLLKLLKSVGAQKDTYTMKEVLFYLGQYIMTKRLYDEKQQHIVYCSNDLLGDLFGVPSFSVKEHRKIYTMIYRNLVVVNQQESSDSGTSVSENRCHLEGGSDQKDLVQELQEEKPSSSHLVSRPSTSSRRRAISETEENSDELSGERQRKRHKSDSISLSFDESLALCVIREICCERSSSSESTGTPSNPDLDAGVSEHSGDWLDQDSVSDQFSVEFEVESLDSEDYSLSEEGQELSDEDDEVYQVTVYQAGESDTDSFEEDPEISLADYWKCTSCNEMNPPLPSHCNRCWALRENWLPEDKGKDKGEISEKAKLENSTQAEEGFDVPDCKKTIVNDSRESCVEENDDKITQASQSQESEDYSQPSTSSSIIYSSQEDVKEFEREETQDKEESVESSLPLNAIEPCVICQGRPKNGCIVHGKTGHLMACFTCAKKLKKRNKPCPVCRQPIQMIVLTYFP

| fraction fluorescent probe displaced, Screen (Acid 14) | fraction fluorescent probe displaced, Replicate (Acid 14, replicate) | fraction fluorescent probe displaced, Screen (Acid 91) | fraction fluorescent probe displaced, Replicate (Acid 91, replicate) | further results | Compound |
| --- | --- | --- | --- | --- | --- |
| -0.0337 | 0.07 |  |  |  | O=C1CCNC(=O)C2CC(NC(=O)c3ccc(Cl)s3)CN2C(=O)CCSSCCNC(=O)C(Cc2ccccc2)N1 (stereo not drawn) [X D5 B2 F Acid 14] |
|  |  |  |  | fraction fluorescent probe displaced, Screen (Acid 25): 0.15; fraction fluorescent probe displaced, Replicate (Acid 25, replicate): 0.07 | O=C1CCNC(=O)C2CC(NC(=O)c3ccc(Cl)cc3)CN2C(=O)CCSSCCNC(=O)C(Cc2c[nH]c3ccccc23)N1 (stereo not drawn) [X D5 B2 W Acid 25] |
| -0.06 | 0.0211 |  |  |  | O=C(NC1CC2C(=O)N3CCCC(C3)C(=O)NC(Cc3ccccc3)C(=O)NCCSSCCC(=O)N2C1)c1ccc(Cl)s1 (stereo not drawn) [X D5 B4 F Acid 14] |
| 0.11 | 0.12 |  |  |  | O=C(NC1CC2C(=O)N3CCCC(C3)C(=O)NC(Cc3c[nH]c4ccccc34)C(=O)NCCSSCCC(=O)N2C1)c1ccc(Cl)s1 (stereo not drawn) [X D5 B4 W Acid 14] |
| -0.0337 | 0.0465 |  |  |  | O=C1NC(Cc2ccccc2)C(=O)NCCSSCCC(=O)N2CC(NC(=O)c3ccc(Cl)s3)CC2C(=O)NCc2cccc1c2 (stereo not drawn) [X D5 B5 F Acid 14] |
|  |  |  |  | fraction fluorescent probe displaced, Screen (Acid 25): -0.00813; fraction fluorescent probe displaced, Replicate (Acid 25, replicate): 0.15 | O=C(N[C@H]1C[C@H]2C(=O)NCc3cccc(c3)C(=O)N[C@@H](Cc3ccccc3)C(=O)NCCSSCCC(=O)N2C1)c1ccc(Cl)cc1 [X D5 B5 F Acid 25] |
|  |  | -0.05 | 0.07 |  | O=C(C=Cc1ccccc1)NC1CC2C(=O)NCc3cccc(c3)C(=O)NC(Cc3ccccc3)C(=O)NCCSSCCC(=O)N2C1 (stereo not drawn) [X D5 B5 F Acid 91] |
|  |  | 0.00268 | 0.09 |  | O=C(/C=C/c1ccccc1)N[C@H]1C[C@H]2C(=O)NCc3cccc(c3)C(=O)N[C@@H](Cc3c[nH]c4ccccc34)C(=O)NCCSSCCC(=O)N2C1 [X D5 B5 W Acid 91] |
| 0.28 | 0.0465 |  |  |  | O=C(NC1CC2C(=O)NC(Cc3ccccc3)C(=O)N3CCCC3C(=O)NCCSSCCC(=O)N2C1)c1ccc(Cl)s1 (stereo not drawn) [X D5 F B1 Acid 14] ([Mpa][ξPro(4-NHCO(5-Cl-2-thienyl))]FP-Cysteamide; disulfide 1-C; configuration not given here) |
| 0.08 | 0.0465 |  |  |  | O=C1CCNC(=O)C(Cc2ccccc2)NC(=O)C2CC(NC(=O)c3ccc(Cl)s3)CN2C(=O)CCSSCCN1 (stereo not drawn) [X D5 F B2 Acid 14] |
|  |  | 0.0563 | -0.0333 |  | O=C(C=Cc1ccccc1)NC1CC2C(=O)NC(Cc3ccccc3)C(=O)NCCC(=O)NCCSSCCC(=O)N2C1 (stereo not drawn) [X D5 F B2 Acid 91] |
| 0.0241 | 0.10 |  |  |  | O=C(NC1CC2C(=O)NC(Cc3ccccc3)C(=O)N3CCCC(C3)C(=O)NCCSSCCC(=O)N2C1)c1ccc(Cl)s1 (stereo not drawn) [X D5 F B4 Acid 14] |
|  |  |  |  | fraction fluorescent probe displaced, Screen (Acid 25): 0.0244; fraction fluorescent probe displaced, Replicate (Acid 25, replicate): 0.0211 | O=C(NC1CC2C(=O)NC(Cc3ccccc3)C(=O)N3CCCC(C3)C(=O)NCCSSCCC(=O)N2C1)c1ccc(Cl)cc1 (stereo not drawn) [X D5 F B4 Acid 25] |
| 0.11 | -0.03 |  |  |  | O=C1NCCSSCCC(=O)N2CC(NC(=O)c3ccc(Cl)s3)CC2C(=O)NC(Cc2ccccc2)C(=O)NCc2cccc1c2 (stereo not drawn) [X D5 F B5 Acid 14] |
|  |  |  |  | fraction fluorescent probe displaced, Screen (Acid 25): 0.0569; fraction fluorescent probe displaced, Replicate (Acid 25, replicate): 0.0465 | O=C1NCCSSCCC(=O)N2C[C@@H](NC(=O)c3ccc(Cl)cc3)C[C@H]2C(=O)N[C@@H](Cc2ccccc2)C(=O)NCc2cccc1c2 [X D5 F B5 Acid 25] |
|  |  | -0.05 | -0.00827 |  | O=C(/C=C/c1ccccc1)N[C@H]1C[C@H]2C(=O)N[C@@H](Cc3ccccc3)C(=O)NCc3cccc(c3)C(=O)NCCSSCCC(=O)N2C1 [X D5 F B5 Acid 91] |
| 0.23 | 0.10 |  |  |  | O=C(N[C@H]1C[C@H]2C(=O)N[C@@H](Cc3c[nH]c4ccccc34)C(=O)N3CCC[C@H]3C(=O)NCCSSCCC(=O)N2C1)c1ccc(Cl)s1 [X D5 W B1 Acid 14] ([Mpa][Pro(4S-NHCO(5-Cl-2-thienyl))]WP-Cysteamide; disulfide 1-C) |
|  |  |  |  | fraction fluorescent probe displaced, Screen (Acid 25): 0.22; fraction fluorescent probe displaced, Replicate (Acid 25, replicate): 0.10 | O=C(NC1CC2C(=O)NC(Cc3c[nH]c4ccccc34)C(=O)N3CCCC3C(=O)NCCSSCCC(=O)N2C1)c1ccc(Cl)cc1 (stereo not drawn) [X D5 W B1 Acid 25] ([Mpa][ξPro(4ξ-NHCOC6H4-4-Cl)]WP-Cysteamide; disulfide 1-C; configuration not given here) |

| fraction fluorescent probe displaced, Screen (Acid 14) | fraction fluorescent probe displaced, Replicate (Acid 14, replicate) | fraction fluorescent probe displaced, Screen (Acid 91) | fraction fluorescent probe displaced, Replicate (Acid 91, replicate) | further results | Compound |
| --- | --- | --- | --- | --- | --- |
| 0.17 | 0.17 |  |  |  | O=C1CCNC(=O)C(Cc2c[nH]c3ccccc23)NC(=O)C2CC(NC(=O)c3ccc(Cl)s3)CN2C(=O)CCSSCCN1 (stereo not drawn) [X D5 W B2 Acid 14] |
|  |  | 0.00268 | -0.0333 |  | O=C(/C=C/c1ccccc1)N[C@H]1C[C@H]2C(=O)N[C@@H](Cc3c[nH]c4ccccc34)C(=O)NCCC(=O)NCCSSCCC(=O)N2C1 [X D5 W B2 Acid 91] |
|  |  |  |  | fraction fluorescent probe displaced, Screen (Acid 25): 0.09; fraction fluorescent probe displaced, Replicate (Acid 25, replicate): 0.15 | O=C(NC1CC2C(=O)NC(Cc3c[nH]c4ccccc34)C(=O)N3CCCC(C3)C(=O)NCCSSCCC(=O)N2C1)c1ccc(Cl)cc1 (stereo not drawn) [X D5 W B4 Acid 25] |
|  |  | 0.0563 | 0.07 |  | O=C(C=Cc1ccccc1)NC1CC2C(=O)NC(Cc3c[nH]c4ccccc34)C(=O)N3CCCC(C3)C(=O)NCCSSCCC(=O)N2C1 (stereo not drawn) [X D5 W B4 Acid 91] |
| 0.08 | 0.0211 |  |  |  | O=C1NCCSSCCC(=O)N2CC(NC(=O)c3ccc(Cl)s3)CC2C(=O)NC(Cc2c[nH]c3ccccc23)C(=O)NCc2cccc1c2 (stereo not drawn) [X D5 W B5 Acid 14] |
|  |  |  |  | fraction fluorescent probe displaced, Screen (Acid 25): 0.0569; fraction fluorescent probe displaced, Replicate (Acid 25, replicate): 0.0465 | O=C1NCCSSCCC(=O)N2C[C@@H](NC(=O)c3ccc(Cl)cc3)C[C@H]2C(=O)N[C@@H](Cc2c[nH]c3ccccc23)C(=O)NCc2cccc1c2 [X D5 W B5 Acid 25] |
|  |  | -0.05 | 0.0168 |  | O=C(/C=C/c1ccccc1)N[C@H]1C[C@H]2C(=O)N[C@@H](Cc3c[nH]c4ccccc34)C(=O)NCc3cccc(c3)C(=O)NCCSSCCC(=O)N2C1 [X D5 W B5 Acid 91] |
| -0.00483 | 0.0465 |  |  |  | O=C1CCSSCCNC(=O)C(Cc2ccccc2)NC(=O)C2CCCN2C(=O)C2(CCN(C(=O)c3ccc(Cl)s3)CC2)N1 (stereo not drawn) [X D6 B1 F Acid 14] ([Mpa][Api](2Thenoyl(5-Cl))PF-Cysteamide; disulfide 1-C; configuration not given here) |
|  |  |  |  | fraction fluorescent probe displaced, Screen (Acid 25): 0.0569; fraction fluorescent probe displaced, Replicate (Acid 25, replicate): 0.07 | O=C1CCSSCCNC(=O)[C@H](Cc2ccccc2)NC(=O)[C@@H]2CCCN2C(=O)C2(CCN(C(=O)c3ccc(Cl)cc3)CC2)N1 [X D6 B1 F Acid 25] ([Mpa][Api](Benzoyl(4-Cl))PF-Cysteamide; disulfide 1-C) |
|  |  | -0.08 | -0.11 |  | O=C1CCSSCCNC(=O)[C@H](Cc2ccccc2)NC(=O)[C@@H]2CCCN2C(=O)C2(CCN(C(=O)/C=C/c3ccccc3)CC2)N1 [X D6 B1 F Acid 91] ([Mpa][Api](X1)PF-Cysteamide; disulfide 1-C) |
| 0.08 | 0.07 |  |  |  | O=C1CCSSCCNC(=O)[C@H](Cc2c[nH]c3ccccc23)NC(=O)[C@@H]2CCCN2C(=O)C2(CCN(C(=O)c3ccc(Cl)s3)CC2)N1 [X D6 B1 W Acid 14] ([Mpa][Api](2Thenoyl(5-Cl))PW-Cysteamide; disulfide 1-C) |
|  |  | -0.05 | 0.04 |  | O=C1CCSSCCNC(=O)[C@H](Cc2c[nH]c3ccccc23)NC(=O)[C@@H]2CCCN2C(=O)C2(CCN(C(=O)/C=C/c3ccccc3)CC2)N1 [X D6 B1 W Acid 91] ([Mpa][Api](X1)PW-Cysteamide; disulfide 1-C) |
| 0.08 | 0.0465 |  |  |  | O=C1CCNC(=O)C2(CCN(C(=O)c3ccc(Cl)s3)CC2)NC(=O)CCSSCCNC(=O)[C@H](Cc2ccccc2)N1 [X D6 B2 F Acid 14] |
|  |  |  |  | fraction fluorescent probe displaced, Screen (Acid 25): 0.0244; fraction fluorescent probe displaced, Replicate (Acid 25, replicate): 0.0211 | O=C1CCNC(=O)C2(CCN(C(=O)c3ccc(Cl)cc3)CC2)NC(=O)CCSSCCNC(=O)[C@H](Cc2ccccc2)N1 [X D6 B2 F Acid 25] |
|  |  | -0.0241 | -0.00827 |  | O=C1CCNC(=O)C2(CCN(C(=O)/C=C/c3ccccc3)CC2)NC(=O)CCSSCCNC(=O)[C@H](Cc2ccccc2)N1 [X D6 B2 F Acid 91] |
| 0.17 | 0.20 |  |  |  | O=C1CCNC(=O)C2(CCN(C(=O)c3ccc(Cl)s3)CC2)NC(=O)CCSSCCNC(=O)[C@H](Cc2c[nH]c3ccccc23)N1 [X D6 B2 W Acid 14] |
|  |  | 0.19 | 0.09 |  | O=C1CCNC(=O)C2(CCN(C(=O)/C=C/c3ccccc3)CC2)NC(=O)CCSSCCNC(=O)[C@H](Cc2c[nH]c3ccccc23)N1 [X D6 B2 W Acid 91] |
|  |  |  |  | fraction fluorescent probe displaced ((initial screen)): -0.00483; fraction fluorescent probe displaced (replicate): 0.10 | O=C1CCSSCCNC(=O)[C@H](Cc2ccccc2)NC(=O)[C@H]2CCCN(C2)C(=O)C2(CCN(C(=O)c3ccc(Cl)s3)CC2)N1 [X D6 B4 F + Acid 14] |
